Paper PMC7822874, “Chemoprotective antimalarials identified through quantitative high-throughput screening of Plasmodium blood and liver stage parasites” (Scientific Reports, 2021)
Like-named read-outs stand apart in the source and are kept apart here.

Experiments:
[1] = tested on: Plasmodium falciparum Dd2 asexual blood stage parasites; experiment: microbe, parasite or virus in culture; parameters: species or system Plasmodium falciparum Dd2 in human erythrocytes; single determination (one 11-point concentration-response curve); details: Plasmodium falciparum, DD2, Erythrocyte, 72 h; read-out: AC50
in vitro [2] = details: human; for viability at 48 h, 1 µM / viability at 48 h, 3 µM / viability at 66 h: HepG2-A16-CD81EGFP cells, uninfected
HepG2 = details: human, hepg2 cells, 48 h
in vitro [3] = details: human, hepg2 cells
[4] = tested on: P. berghei-ANKA-GFP-LucCON liver stage parasites in HepG2-A16-CD81EGFP cells; experiment: P. berghei liver stage Pb-Luc assay, Method 1 (UCSD, 1536-well); type: cell-based, Plasmodium berghei; details: Method 1; for Max Resp (signal direction of the dose response): Decrease = decreasing P. berghei viability with dose, Increase = increasing signal, Inactive = no dose response
[5] = Plasmodium berghei, Hill fit, 50% of maximum activity response, read-out: AC50
[6] = Plasmodium berghei, log10 of molar AC50 from Hill fit, read-out: Log AC50 (converted)

Log AC50 (M) (HepG2)	Structure (SMILES)	AC50 [1] [nM]	viability at 48 h, 1 µM (in vitro [2]) [%]	viability at 48 h, 3 µM (in vitro [2]) [%]	CC50 at 48 h (in vitro [3]) [µM]	viability at 66 h (in vitro [2]) [%]	viability (in vitro [2]) [%]	Max Resp (signal direction of the dose response) [4]	AC50 ([4]; Hill fit, 50% of maximum activity response, read-out: AC50) [nM]	Log AC50 (M) ([4]; log10 of molar AC50 from Hill fit)	AC50 [4, 5] [nM]	AC50 [4, 6] [nM]
-4.4643	N=c1ccn(Cc2ccc(Cl)cc2)cc1 [MLS000080110-01]	8410	–	–	34.3	101	–	–	–	–	–	–
-6.2143	Cc1cnc(C(=O)Nc2cccc3cccnc23)cn1 [MLS000033120-01]	2660	–	–	0.611	105	–	–	–	–	–	–
-4.5143	COc1ccc(/C=N/Nc2cc(C)nc3ccccc23)cc1 [MLS001210939-01]	2110	92	87	30.6	–	–	–	–	–	–	–
-4.3643	c1ccc2cc3c(NCCN4CCOCC4)ccnc3cc2c1 [MLS000702892-01]	1680	89	92	43.2	–	–	–	–	–	–	–
-4.5143	CCN(CC)CCn1c(=N)n(CC(=O)c2ccc(Br)s2)c2ccccc21 [MLS001045932-01]	5310	91	91	30.6	–	–	–	–	–	–	–
-4.3643	CCc1ccc(Nc2cc(=O)n(C3CCCCC3)c(=O)[nH]2)cc1 [MLS000094379-01]	–	–	–	43.2	104	–	–	–	–	–	–
-4.3643	CCOC(=O)c1sc(NC(=O)CNCc2ccccn2)c(C(=O)OCC)c1C [MLS001005083-01]	–	101	96	43.2	–	–	–	–	–	–	–
-4.3528	CC(C)C[C@@H]1N[C@H](C(=O)NC(C)C)Cc2cn(Cc3ccncc3)c3cccc1c23 [NCGC00395386-01]	17200	–	–	44.4	–	–	–	–	–	–	–
-4.5143	CC1CCCCN1CCCNC(=O)c1ccc2c(c1)sc1nc(-c3ccc(F)cc3)cn12 (stereo not shown) [NCGC00121681-01]	1880	–	–	30.6	–	–	–	–	–	–	–
-4.4643	CCN(CC)CCNC(=O)c1ccc(NC(=O)c2ccc(S(=O)(=O)N3CCCCCC3)cc2)cc1 [MLS001157553-01]	8410	–	–	34.3	–	–	–	–	–	–	–
-4.6643	CC(C)(C)CC(C)(C)c1ccc(O)c(Cc2ccc(Cl)cc2Cl)c1 [NCGC00095016-01]	1680	–	–	21.7	–	–	–	–	–	–	–
-4.3143	CCN(CC)CCOC(=O)c1ccc(NC(=O)c2cc3c(=O)n(CC)c4ccccc4c3s2)cc1 [NCGC00110417-01]	2660	–	–	48.5	–	–	–	–	–	–	–

Structure (SMILES)	Log AC50 (M) (HepG2)	AC50 [1] [nM]	viability at 48 h, 1 µM (in vitro [2]) [%]	viability at 48 h, 3 µM (in vitro [2]) [%]	CC50 at 48 h (in vitro [3]) [µM]	viability at 66 h (in vitro [2]) [%]	viability (in vitro [2]) [%]	Max Resp (signal direction of the dose response) [4]	AC50 ([4]; Hill fit, 50% of maximum activity response, read-out: AC50) [nM]	Log AC50 (M) ([4]; log10 of molar AC50 from Hill fit)	AC50 [4, 5] [nM]	AC50 [4, 6] [nM]
CCCN(CCC)CCNC(=O)c1cc2c(-c3ccc(Cl)cc3)nn(C)c2s1 [NCGC00108997-01]	-4.3643	596	102	98	43.2	–	–	–	–	–	–	–
COc1cc(OC)c(NC2=CC(=O)C(=O)c3ccccc32)cc1Cl [MLS001198657-01]	-4.3643	2990	93	59	43.2	–	–	–	–	–	–	–
Cc1c2ccncc2c(C)c2c1[nH]c1ccccc12 [MLS001076505-01]	-4.3643	3350	–	–	43.2	–	102	–	–	–	–	–
C/C(=N\NC(=O)c1cccc(Br)c1)c1ccccn1 [MLS001232242-01]	-5.8643	4730	–	–	1.37	–	–	Decrease	891	-6.050	794	794
Cc1nc2c(=O)n(C)c(=O)nc-2n(C)n1 [MLS000528498-01]	-6.0643	422	–	–	0.862	–	–	Decrease	–	–	56	56.2
COc1cc2c(cc1OCc1ccccc1)N(C(=O)c1cc3ccccc3n1C)CC21CCN(C)CC1 [NCGC00419848-01]	-4.3643	2110	–	–	43.2	–	–	–	–	–	–	–
